Data taken from patent US8697730B2, “5-lipoxygenase activating protein (FLAP) inhibitor” (Panmira Pharmaceuticals, LLC, priority 2007, dated 2014).
Read-outs that look alike come from different tables or passages of the source.

Assay: Phase 1 study in healthy human volunteers, plasma pharmacokinetics
Format: in vivo
Conditions: for AUC(0-t): read-out: AUC0-24 (hr * mM) AVE ± SD; for Tmax: read-out: Tmax (hr) AVE ± SD; for half-life: read-out: t1/2 (hr) AVE ± SD (converted)
Experimental: The study is divided into two phases (Single and Multiple Dose Phases).
One cohort in the Multiple Dose Phase receives twice daily dosing.
Placebo solution to match. The finished aqueous solution is prepared in the clinical study site pharmacy within 24 hours of dosing. The study drug is stored at room temperature between 15-30° C. (59-86° F.) and protected from light.
Route of Administration: All doses are administered orally with approximately 100 mL of water rinse. Subjects are fasted for at least 8 hours prior to dosing and for 2 hours after dosing.
Obtain pre-dose fasting blood samples for hematology determinations. Obtain pre-dose fasting blood samples for serum chemistry determinations. Obtain pre-dose blood samples (5 mL EDTA and 4 mL heparinized) for baseline PK and LTB4. Collect ‘spot’ urine prior to study drug administration for baseline (pre-dose) LTE4. Administer study drug. […] Collect blood samples (2 mL heparinized) for LTB4 at 0.5, 1, 2, 3, 4, 6, 8, and 12 hours. Collect urine for LTE4 for the following separate intervals: 0-3, 3-6, 6-9, and 9-12 hours. For twice daily dosing group (if conducted): administer study drug 12 hours±30 minutes after prior dose, preceded by ≧2 hours fast. […]

[1] = both sexes, human, single dose 50 mg, oral solution, fasted healthy subjects
[2] = both sexes, human, single dose 150 mg, oral solution, fasted healthy subjects
[3] = both sexes, human, single dose 300 mg, oral solution, fasted healthy subjects
[4] = both sexes, human, single dose 600 mg, oral solution, fasted healthy subjects
[5] = both sexes, human, single dose 1000 mg, oral solution, fasted healthy subjects
[6] = male, human, multiple dose phase, Day 1, 150 mg, oral solution
[7] = male, human, multiple dose phase, Day 1, 450 mg, oral solution
[8] = male, human, multiple dose phase, Day 1, 1000 mg, oral solution

AUC(0-t) [1]: 5.4 ± 2.5 µM·h
Cmax (both sexes, human, single dose 50 mg, oral solution, fasted healthy subjects, read-out: Cmax (mM) AVE ± SD): 0.00065 ± 0.00032 mM
Tmax [1]: 3 ± 0.8 h
half-life [1]: 7.7 ± 0.3 h
AUC(0-t) [2]: 15.9 ± 8.7 µM·h
Cmax (both sexes, human, single dose 150 mg, oral solution, fasted healthy subjects, read-out: Cmax (mM) AVE ± SD): 0.0018 ± 0.0011 mM
Tmax [2]: 2.5 ± 0.5 h
half-life [2]: 10 ± 2 h
AUC(0-t) [3]: 25.8 ± 7.4 µM·h
Cmax (both sexes, human, single dose 300 mg, oral solution, fasted healthy subjects, read-out: Cmax (mM) AVE ± SD): 0.0031 ± 0.0014 mM
Tmax [3]: 3.2 ± 1 h
half-life [3]: 12.3 ± 3.1 h
AUC(0-t) [4]: 54 ± 35.3 µM·h
Cmax (both sexes, human, single dose 600 mg, oral solution, fasted healthy subjects, read-out: Cmax (mM) AVE ± SD): 0.0081 ± 0.0053 mM
Tmax [4]: 2 ± 0.6 h
half-life [4]: 8.8 ± 1.3 h
AUC(0-t) [5]: 85 ± 44 µM·h
Cmax (both sexes, human, single dose 1000 mg, oral solution, fasted healthy subjects, read-out: Cmax (mM) AVE ± SD): 0.013 ± 0.005 mM
Tmax [5]: 3 ± 0.8 h
half-life [5]: 7.6 ± 4.6 h
Cmax (both sexes, oral, profile that may be obtained from a single dose administration to a human, dose not stated, read-out: Cmax): ≤ 0.005 mM
AUC(0-t) [6]: 11.3 ± 5 µM·h
Cmax (male, human, multiple dose phase, Day 1, 150 mg, oral solution, read-out: Cmax (mM) AVE ± SD): 0.0019 ± 0.0011 mM
Tmax [6]: 2.5 ± 0.5 h
half-life [6]: 9.2 ± 2 h
AUC(0-t) [7]: 34.2 ± 7.9 µM·h
Cmax (male, human, multiple dose phase, Day 1, 450 mg, oral solution, read-out: Cmax (mM) AVE ± SD): 0.0047 ± 0.0022 mM
Tmax [7]: 2.7 ± 0.5 h
half-life [7]: 13.2 ± 3.9 h
AUC(0-t) [8]: 127 ± 50 µM·h
Cmax (male, human, multiple dose phase, Day 1, 1000 mg, oral solution, read-out: Cmax (mM) AVE ± SD): 0.0144 ± 0.0051 mM
Tmax [8]: 2.3 ± 0.5 h
half-life [8]: 11.2 ± 5.1 h
SMILES: COc1ccc(-c2ccc(Cn3c(CC(C)(C)C(=O)O)c(SC(C)(C)C)c4cc(OCc5ccccn5)ccc43)cc2)cn1 [sodium 3-[5-(pyridin-2-ylmethoxy)-3-(2-methyl-2-propylthio)-1-[4-(2-methoxypyridin-5-yl)benzyl]-indol-2-yl]-2,2-dimethyl-propionate]
